From patent publication US20130005764A1, “QUININE DOSAGE FORMS AND METHODS OF USE THEREOF” (priority 2006, published 2013)
Where a name gives a salt, the structure may show the parent alone. Read-outs that look alike come from different tables or passages of the source.

What was measured:
[1] = dosing an amount between 324 mg to 658 mg, fasted
[2] = Mean plasma quinine concentrations over 24 hours following a single oral dose of quinine sulfate (Example 1, Studies 1 and 2); type: in vivo, human; settings: Study 2 C: single oral 324 mg capsule, fasting; 0 hours
[3] = Non-transformed data, least squares mean; 324 mg, fasted conditions
[4] = for AUC0-INF / AUC0-t / Cmax: 260 mg, 1 capsule (dose adjusted to 1.25 × 324 mg)
[5] = human, in vivo, po
[6] = 2 × 324 mg
[7] = in vivo
[8] = in vivo; remark: listed apart in the source
[9] = Ln-transformed data, geometric mean, fasted
[10] = Non-transformed data, least squares mean, fasted
[11] = Ln-transformed data, geometric mean, fasted conditions
[12] = Non-transformed data, least squares mean, fasted conditions
[13] = Non-transformed data, least squares mean, fed conditions

Compound: C=C[C@H]1C[N@@]2CC[C@H]1C[C@H]2[C@H](O)c1ccnc2ccc(OC)cc12 [Quinine Sulfate, cinchonan-9-ol, 6′-methoxy-, (8α,9R)-, sulfate (2:1)]
- pharmacokinetic profile proportionality to dose [1]: not linearly proportional
- Mean Plasma Concentration [2]: 0; ng/ml
- kelim [3]: 0.0564
- AUC0-INF [4, 9]: 32072.92 ng·h/mL
- AUC0-t [4, 9]: 30019.28 ng·h/mL
- Cmax [4, 9]: 2251.55 ng/mL
- AUC0-INF [4, 10]: 33582.46 ng·h/mL
- AUC0-t [4, 10]: 31285.26 ng·h/mL
- Cmax [4, 10]: 2310.90 ng/mL
- Tmax ([4]; Non-transformed data, least squares mean, 324 mg, 1 capsule, fasted): 2.75
- pharmacokinetic profile proportionality to dose ([4]; dose amount between 280 mg to 324 mg): linearly proportional
- mean±SD maximum QTc change from baseline around the quinine Tmax ([5]; 324 mg): 0.01 ± 0.019 s
- mean±SD maximum QTc change from baseline around the quinine Tmax ([5]; 648 mg): 0.012 ± 0.018 s
- AUC0-INF [6, 11]: 50005.77 ng·h/mL
- AUC0-t [6, 11]: 47258.21 ng·h/mL
- Cmax [6, 11]: 3197.25 ng/mL
- Cmax ([6]; Ln-transformed data, geometric mean, fed conditions): 3332.41 ng/mL
- AUC0-INF [6, 12]: 52643.14 ng·h/mL
- AUC0-t [6, 12]: 49484.64 ng·h/mL
- Cmax [6, 12]: 3293.84 ng/mL
- Tmax [6, 12]: 2.68
- AUC0-INF [6, 13]: 54409.12 ng·h/mL
- AUC0-t [6, 13]: 51228.07 ng·h/mL
- Tmax ([7]; human, 648 mg): 2.8 h
- dose proportionality (Cmax) [7]: nonlinear dose proportionality
- Tmax ([8]; human, 324 mg): 2.6 h
- Cmax and AUC0-t between the fed and fasted states ([8]; po): substantially unchanged
